Reference: publication PMC9496321, “6-Furopyridine Hexamethylene Amiloride Is a Non-Selective P2X7 Receptor Antagonist” (Biomolecules, 2022)

Assays:
[1] = tested on: hP2X7-mediated IL-1β release; assay: Whole blood IL-1β release assay; assay type: cell-based; settings: 30 μM compound, 6 mM ATP, LPS-primed human whole blood
Method: Whole blood IL-1β release assays were conducted as described. Briefly, whole human blood was mixed with an equal volume of serum-free RPMI-1640 medium containing LPS (200 ng/mL), added to a flat-bottom 96-well plate and incubated (37 °C, 95% air/5% CO2, 105 min). Compounds (30 μM) or vehicle (DMSO) were added to respective wells and incubated (37 °C, 95% air/5% CO2, 15 min). […] Plates were centrifuged (700× g, 10 min) with the resulting supernatants collected and stored at −80 °C. hIL-1β concentrations were determined using a Human IL-1β ELISA (Thermo Fisher Scientific) according to the manufacturer’s instructions. Samples above the detection limit (7500 pg/mL) were set at 7500 pg/mL for statistical analysis.

hP2X4 = molecular target: T1, hP2X4 (Homo sapiens, UniProt Q99571); assay: Fura-2AM Ca2+ response assay in HEK-hP2X4 cells; assay type: cell-based
T1 construct: expressed in transfected cells; host or cells: HEK293 cells, transient transfection
T1 sequence (Q99571 1-388): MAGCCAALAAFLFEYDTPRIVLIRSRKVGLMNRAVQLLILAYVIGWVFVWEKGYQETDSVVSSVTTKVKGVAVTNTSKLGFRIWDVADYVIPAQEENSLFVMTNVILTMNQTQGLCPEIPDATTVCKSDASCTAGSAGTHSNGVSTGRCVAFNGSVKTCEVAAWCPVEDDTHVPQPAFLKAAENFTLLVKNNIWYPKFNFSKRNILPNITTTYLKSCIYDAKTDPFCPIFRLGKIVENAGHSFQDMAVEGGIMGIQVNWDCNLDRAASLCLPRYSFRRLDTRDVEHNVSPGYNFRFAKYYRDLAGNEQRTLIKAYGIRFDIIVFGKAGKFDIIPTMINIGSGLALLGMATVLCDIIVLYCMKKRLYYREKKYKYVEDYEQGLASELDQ
Method: HEK293 cells were plated at 3.5 × 10^5 cells/well in 2 mL of complete DMEM/F12 medium and incubated (37 °C, 95% air/5% CO2, overnight). Cells were transfected with mP2X7-GFP (HEK-mP2X7), cP2X7-GFP (HEK-cP2X7) or hP2X4-EmGFP (HEK-hP2X4) plasmids, or mock transfected with an equivalent volume of sterile Milli-Q water (Merck Millipore, Burlington, NJ, USA), using Lipofectamine 3000 according to the manufacturer’s instructions. Cells were used for assays 48 h post-transfection. To determine transfection efficiency, cells were washed twice with D-PBS and data collected with an LSR Fortessa X-20 flow cytometer (BD Biosciences). The proportion of GFP positive cells was determined using FlowJo software v8.7.1 (BD Biosciences).
Ca^2+ response assays were conducted as described. […] Fura-2 fluorescence at 510 nm was measured every 5 s using a FlexStation 3 (Molecular Devices, San Jose, CA, USA). […] Relative changes in intracellular Ca^2+ were calculated using the ratio of Fura-2AM fluorescence at 510 nm following excitation at 340 nm and 380 nm (F340nm/380nm). […] To determine relative P2X-mediated Ca^2+ responses, the area under the curve from 100 to 180 s was calculated with GraphPad Prism. To determine P2Y-mediated Ca^2+ responses the area under the curve from 30 to 100 s was calculated. In both cases, ATP-induced responses were calculated by subtracting the corresponding basal response. […]

NHE1 = tested on: NHE1; set-up: method as in PMID 33804289; settings: cited from earlier work

inhibition at 100 µM (hP2X4): 100% | IC50 (hP2X4; read-out: IC50, hP2X4-mediated Ca2+ flux): 3.95 ± 0.19 µM
Structure (SMILES): N=C(N)NC(=O)c1nc(-c2cc3cnccc3o2)c(N2CCCCCC2)nc1N [6-FPHMA, 6-furopyridine-substituted 5-(N,N-hexamethylene) amiloride]
reduction of ATP-induced IL-1β compared to vehicle control [1]: 56 ± 15% | inhibition of NHE1 (NHE1): inhibit
